# Measurements: patent US20130231309A1, “TREATMENT OF INFLAMMATION AND ORGAN DYSFUNCTION” (THE REGENTS OF THE UNIVERSITY OF CALIFORNIA, priority 2005, published 2013)
# Assays:
# [1] = test system: MMP-1 (collagenase-1) and MMP-9 (gelatinase B); test: In-vivo zymography of mesentery with fluorogenic substrate; parameters: species or system rat; settings: EDTA 5 mM applied to mesentery
# Protocol: Measurement of MMP-1,9 activity was obtained by superfusion of the mesentery with fluorogenic substrate (0.5 μmol/L; catalogue number D2293, Sigma-Aldrich Inc., St. Louis, Mo.) added to the suffusate. The substrate was cleaved by MMP-1 (collagenase-1) and MMP-9 (gelatinase B). The mesentery was loaded with substrate 10 minutes prior to image collection and continuously suffused with substrate throughout the experiment. The associated fluorescence was visualized by epi-illumination at 280 nm passing through a 340 nm emission filter on a fluorescent intravital microscope (Leica), and recorded digitally for measurement of fluorescent intensity. Light intensity of the emitted fluorescent light was recorded in digital units (1-256) after subtraction of background intensity in the absence of the tissue with standardized microscope settings. Reproducibility of these measurements as determined by repeated measurements on the same specimen was within 3%.
# [2] = WKY and SHR central hemodynamics (arterial blood pressure via femoral artery catheter, heart rate) after chronic doxycycline; type: in vivo, rat; settings: for Mean Blood Pressure: doxycycline 55 mg/liter in drinking water (~5.4 mg/kg/day); for Diastolic Blood Pressure / Heart Rate / Systolic Blood Pressure: doxycycline in drinking water; for Mean Arterial Blood Pressure during Chronic MMP Inhibition: after MMP inhibition for 12 weeks, age 30 weeks
# Protocol: Selected WKY and SHR were treated with doxycycline (55 mg/liter in drinking water, average consumption ˜5.4 mg/kg/day, West-Ward Pharmaceutical Corp., Eatontown, N.J.) for a period of 24 weeks. It should be noted that lower and higher concentrations are also effective. A range of effective does of about 1.0-20.0 mg/kg/day, resulting from the dissolution of about 5.5-220 mg of an MMP inhibitor per liter, may also be used to produce an effective result. Narrower ranges of MMP solute may also be used, for example, 75-180 mg, and 100 mg-150 mg. The ileocecal portion of the mesentery was prepared as described in Delano and Schmid-Schonbein, “The Glucocorticoid and Mineralocorticoid Receptor Distribution in a Microvascular Network of the Spontaneously Hypertensive Rat.” Briefly, arterial blood pressure was recorded via a femoral artery catheter. Individual sectors of mesentery were exposed via an abdominal midline incision while superfused with Krebs-Henseleit buffer (37° C., pH=7.4). The blood pressure of WKY and SHR was reduced by doxycycline treatment as shown below in Table 1, a trend that was detectable in terms of systolic, diastolic or mean blood pressure. […] In another experiment, and in order to explore the utility of chronic protease inhibition, a group of mature normotensive Wistar Kyoto rats (as well as a cohort of spontaneously hypertensive rats) were treated with a broad acting metafloproteases inhibitor (doxycycline, 55 mg/liter in drinking water, average consumption ˜5.4 mg/kg/day) over a period of 12 weeks until the age of 30 weeks.
# [3] = Blood cell counts (hematocrit, total leukocyte count); type: in vivo, rat; settings: for Leukocyte Count: doxycycline in drinking water
# Protocol: Selected WKY and SHR were treated with doxycycline (55 mg/liter in drinking water, average consumption ˜5.4 mg/kg/day, West-Ward Pharmaceutical Corp., Eatontown, N.J.) for a period of 24 weeks. It should be noted that lower and higher concentrations are also effective. A range of effective does of about 1.0-20.0 mg/kg/day, resulting from the dissolution of about 5.5-220 mg of an MMP inhibitor per liter, may also be used to produce an effective result. Narrower ranges of MMP solute may also be used, for example, 75-180 mg, and 100 mg-150 mg. Fresh leukocytes were fixed on a blood smear in whole blood (using heparin as anticoagulant, 10 U/ml) with formalin solution and […] (10%, neutral buffered, 1 hr). Total leukocyte count was determined with a hemocytometer, and hematocrit was centrifuged in microhematocrit tubes. Neutrophils were separated in a density gradient (Histopaque-1077, Sigma Aldrich, spun at 42 g for 5 min).
# [4] = test system: plasma proteases (metallo-, serine, acid and sulfhydryl proteases); test: Plasma protease activity (fluorescent protease assay kit, Enzchek); type: in vivo, rat; settings: after MMP inhibition for 12 weeks, age 30 weeks
# Protocol: Fresh plasma samples were frozen (−60 C) until measurements were taken. On the day of the experiment, the samples were unfrozen and tested simultaneously for overall protease activity with fluorescent protease assay kit (Enzchek, Cat #E-6638, Molecular Probes). The substrate was cleaved by a range of proteases (metallo-, serine, acid and sulfhydryl proteases). Protease activity was determined from fluorescent intensity after peptide cleavage (in fluorescent units). In another experiment, and in order to explore the utility of chronic protease inhibition, a group of mature normotensive Wistar Kyoto rats (as well as a cohort of spontaneously hypertensive rats) were treated with a broad acting metafloproteases inhibitor (doxycycline, 55 mg/liter in drinking water, average consumption ˜5.4 mg/kg/day) over a period of 12 weeks until the age of 30 weeks.
# [5] = test system: apoptotic cells in thymus, kidney, skeletal muscle; test: Apoptosis by TUNEL / propidium iodide labeling of frozen tissue sections; type: in vivo, rat; settings: chronic doxycycline; for Fraction Of Apoptotic Cells, Thymus: tissue area of 10,000 μm^2
# Protocol: A subsequent study was performed to consider the reduction of cell apoptosis after chronic MMP inhibition. In addition to the dramatic reduction of blood pressure, free radical production, membrane receptor cleavage and other pathophysiological parameters (described elsewhere) that point towards organ injury in the SHR, cell apoptosis was also considered after MMP inhibition. […] For this purpose, a novel digital technique was introduced to determine nuclear fragmentation on freshly-harvested frozen tissue sections labeled for DNA breaks with the TUNEL technique and with propidium iodide (PI) for the detection of cell nuclei (see FIG. 9). […] PI-positive nuclei (B) are used to identify the total number of cells in the fields. Their image is superimposed on the bright field image of TUNEL-positive nuclei (dark brown color in A) to determine digitally the light absorption due to the TUNEL label (shown in green in panels C) and the level of apoptosis (C).
# [6] = Thymus weight normalized to body weight; type: in vivo, rat; settings: chronic doxycycline, n = 5
# Text: The reduced apoptosis in the thymus by MMP blockade is also confirmed by direct measurements of the organ weight (shown in Table 6).
structure (smiles),measurement,setting,value
"O=C(O)CN(CCN(CC(=O)O)CC(=O)O)CC(=O)O [EDTA, ethylenediaminetetraacetic acid]",Fluorescent intensity generated by the fluorogenic substrate,[1],undetectable
C[C@H]1c2cccc(O)c2C(=O)C2=C(O)[C@]3(O)C(=O)C(C(N)=O)=C(O)[C@@H](N(C)C)[C@@H]3[C@@H](O)[C@@H]21 [doxycycline],Mean Blood Pressure,"[2]; SHR, n = 7",126.3 ± 13.5 mmHg
same,Diastolic Blood Pressure,[2]; SHR,99.4 ± 17.3 mmHg
same,Heart Rate,[2]; SHR,398 ± 60 beats/min
same,Systolic Blood Pressure,[2]; SHR,161.9 ± 14.5 mmHg
same,Mean Arterial Blood Pressure during Chronic MMP Inhibition,[2]; Spontaneously Hypertensive rat,126.3 ± 13.5 mmHg
same,Mean Blood Pressure,"[2]; WKY rats, n = 6",95.7 ± 8.5 mmHg
same,Diastolic Blood Pressure,[2]; WKY rats,77.4 ± 6.8 mmHg
same,Heart Rate,[2]; WKY rats,364 ± 30 beats/min
same,Systolic Blood Pressure,[2]; WKY rats,125.3 ± 10.6 mmHg
same,"Arterial pressure after treatment, relative to the Wistar rat","[2]; WKY rats, Wistar rat about 105 mmHg",< 105 mmHg
same,Mean Arterial Blood Pressure during Chronic MMP Inhibition,[2]; Wistar Kyoto rat,95.7 ± 8.5 mmHg
same,Leukocyte count after treatment as share of its usually high count,[3]; SHR group,less than 50%
same,Leukocyte Count,[3]; SHR,2532 ± 574
same,Leukocyte Count,[3]; WKY rats,"2737 ± 272*, **"
same,Plasma Protease Activity During Chronic MMP Inhibition,[4]; Spontaneously Hypertensive rat,472 ± 24 FU
same,Plasma Protease Activity During Chronic MMP Inhibition,[4]; Wistar Kyoto rat,413 ± 40 FU
same,"Fraction Of Apoptotic Cells, Kidney",[5]; SHR,12.8 ± 5.2%
same,"Fraction Of Apoptotic Cells, Skeletal muscle",[5]; SHR,1.7 ± 2.4 %
same,"Fraction Of Apoptotic Cells, Thymus",[5]; SHR,13.8 ± 9.1 %
same,"Fraction Of Apoptotic Cells, Kidney",[5]; WKY,5.1 ± 3.5%
same,"Fraction Of Apoptotic Cells, Skeletal muscle",[5]; WKY,1.4 ± 1.3%
same,"Fraction Of Apoptotic Cells, Thymus",[5]; WKY,4.7 ± 3.0%
same,Thymus Weight Normalized With Respect To Body Weight,[6]; SHR,87.4 ± 3.3 mg/100 g body wt
same,Thymus Weight Normalized With Respect To Body Weight,[6]; WKY,81.4 ± 7.4 mg/100 g body wt
